Assay [1] has as its system M. tuberculosis clinical isolate 1670. Put plainly: microbe, parasite or virus in culture. The assay is classed as cell-based. The following applies: Mycobacterium tuberculosis.
For assay [2], the system named is M. tuberculosis strain 1097. Description: Drug sensitivity testing, Bactec MGIT 960. The assay is classed as cell-based, Mycobacterium tuberculosis. Set-up: key: sensitive (S); resistant (R).
Assay [3] deals with M. tuberculosis clinical isolate 952. Put plainly: microbe, parasite or virus in culture. Format: cell-based. Particulars: Mycobacterium tuberculosis.
Assay [4] concerns M. tuberculosis clinical isolate 368. Put plainly: microbe, parasite or virus in culture. The following applies: Mycobacterium tuberculosis. Format: cell-based.
The test system of another assay is M. tuberculosis H37Rv. Description: Drug sensitivity testing, Bactec MGIT 960. Format: cell-based, Mycobacterium tuberculosis. More on the design: key: sensitive (S); resistant (R). Particulars: strain H37Rv.
The test system of assay [5] is M. tuberculosis clinical isolate 1762. Description: microbe, parasite or virus in culture. The assay is classed as cell-based. Particulars: Mycobacterium tuberculosis.
Assay [6] relates to M. tuberculosis strain 512. Description: Drug sensitivity testing, Bactec MGIT 960. More on the design: key: sensitive (S); resistant (R). Format: cell-based, Mycobacterium tuberculosis.
For assay [7], the system named is M. tuberculosis H37Rv strain (ATCC 27294). Description: Resazurin microtiter assay (REMA). The assay is classed as cell-based. Particulars: Mycobacterium tuberculosis, drug alone. The protocol:
REMA assays were performed in sterile 96-well microtiter plates with round-bottom wells, sealed in a plastic bag. Mycobacteria were cultured in Middlebrook 7H11 medium supplemented with OADC. […] Final bacterial inocula were approximately 1–5 × 10^5 CFU/mL. Plates were incubated at 37 °C and were read after 72 h. Once the final visual reading was performed, 30 μL of 0.02% resazurin was added to each well before reincubation overnight. Bacterial growth was measured by the change in color from blue (oxidized state) to pink (reduced), and minimal inhibitory concentration (MIC) was defined as the lowest drug concentration that prevented the color change and, therefore, the mycobacteria growth.

Assay [8] deals with M. tuberculosis strain 952. Put plainly: Drug sensitivity testing, Bactec MGIT 960. The assay is classed as cell-based, Mycobacterium tuberculosis. Set-up: key: sensitive (S); resistant (R).
The test system of assay [9] is M. tuberculosis clinical isolate 1097. Description: microbe, parasite or virus in culture. The assay is classed as cell-based. The following applies: Mycobacterium tuberculosis.
Assay [10] deals with M. tuberculosis strain 1670. Put plainly: Drug sensitivity testing, Bactec MGIT 960. Set-up: key: sensitive (S); resistant (R). The assay is classed as cell-based, Mycobacterium tuberculosis.
Assay [11] has as its system M. tuberculosis strain 1120. Put plainly: Drug sensitivity testing, Bactec MGIT 960. Format: cell-based, Mycobacterium tuberculosis. More on the design: key: sensitive (S); resistant (R).
For assay [12], the system named is M. tuberculosis strain 600. Description: Drug sensitivity testing, Bactec MGIT 960. More on the design: key: sensitive (S); resistant (R). Format: cell-based, Mycobacterium tuberculosis.
Assay [13] relates to M. tuberculosis strain 368. Description: Drug sensitivity testing, Bactec MGIT 960. The assay is classed as cell-based, Mycobacterium tuberculosis. Set-up: key: sensitive (S); resistant (R).
For assay [14], the system named is M. tuberculosis clinical isolate 1120. Put plainly: microbe, parasite or virus in culture. The assay is classed as cell-based. The following applies: Mycobacterium tuberculosis.
Assay [15] has as its system M. tuberculosis strain 571. Description: Drug sensitivity testing, Bactec MGIT 960. Format: cell-based, Mycobacterium tuberculosis. More on the design: key: sensitive (S); resistant (R).
The test system of assay [16] is M. tuberculosis clinical isolate 512. Put plainly: microbe, parasite or virus in culture. The assay is classed as cell-based. Particulars: Mycobacterium tuberculosis.
The test system of assay [17] is M. tuberculosis clinical isolate 600. Put plainly: microbe, parasite or virus in culture. The assay is classed as cell-based. The following applies: Mycobacterium tuberculosis.
Assay [18] deals with M. tuberculosis clinical isolate 571. Put plainly: microbe, parasite or virus in culture. The assay is classed as cell-based. Particulars: Mycobacterium tuberculosis.
For assay [19], the system named is M. tuberculosis strain 1762. Put plainly: Drug sensitivity testing, Bactec MGIT 960. The assay is classed as cell-based, Mycobacterium tuberculosis. Set-up: key: sensitive (S); resistant (R).

SMILES strings stand for the structures. ≈ marks a conversion by molar mass, not a printed value.

The source of these data is publication PMC7760137, “Solid Lipid Nanoparticles as Formulative Strategy to Increase Oral Permeation of a Molecule Active in Multidrug-Resistant Tuberculosis Management” (Pharmaceutics, 2020).

Take `CC[C@@H](CO)NCCN[C@@H](CC)CO` [EMB, ethambutol]: the MIC in [1] was 1 µg/mL (≈ 4.89 µM); in assay [3], 1 µg/mL (≈ 4.89 µM); in assay [4] it was greater than 16 µg/mL; in assay [5] it was 4 µg/mL (≈ 19.6 µM); in assay [7], 1 µg/mL (≈ 4.89 µM); in [9], 32 µg/mL (≈ 157 µM). Also, the MIC in assay [14] was greater than 64 µg/mL; in assay [16], 4 µg/mL (≈ 19.6 µM); in assay [17], greater than 16 µg/mL; in assay [18], greater than 16 µg/mL. Further, the “Drug sensitivity test result” value is “R” in assay [2]; “S” in the assay with M. tuberculosis H37Rv; “R” in assay [6]; “S” in assay [8]; “S” in assay [10]; “R” in assay [11]. Also, the “Drug sensitivity test result” value in assay [12], in assay [13], in [15] and in [19] was “R” in each case.

As for `NNC(=O)c1ccncc1` [INH, isoniazid], the MIC was 0.125 µg/mL (≈ 0.911 µM) in assay [1]; 0.062 µg/mL (≈ 0.452 µM) in [3]; less than 1 µg/mL in assay [4]; 0.062 µg/mL (≈ 0.452 µM) in assay [5]; 0.125 µg/mL (≈ 0.911 µM) in assay [7]; 2 µg/mL (≈ 14.6 µM) in [9]. The MIC in assay [14] is greater than 16 µg/mL; in assay [16], 1 µg/mL (≈ 7.29 µM); in [17], greater than 1 µg/mL; in [18], greater than 1 µg/mL. Besides, the “Drug sensitivity test result” value is recorded as “R” in assay [2]; “S” in the assay on M. tuberculosis H37Rv; “R” in assay [6]; “S” in assay [8]; “S” in assay [10]; “R” in assay [11]. Moreover, the “Drug sensitivity test result” value in assay [12] is given as “R”; in assay [13], “R”; in assay [15], “R”; in assay [19], “S”.

For `CO[C@H]1/C=C/O[C@@]2(C)Oc3c(C)c(O)c4c(O)c(c(/C=N/N5CCN(C)CC5)c(O)c4c3C2=O)NC(=O)/C(C)=C\C=C\[C@H](C)[C@H](O)[C@@H](C)[C@@H](O)[C@@H](C)[C@H](OC(C)=O)[C@@H]1C` [RIF, rifampicin], the MIC in assay [1] is 0.125 µg/mL (≈ 0.152 µM); in assay [3], 0.5 µg/mL (≈ 0.608 µM); in [4], 0.25 µg/mL (≈ 0.304 µM); in assay [5], greater than 2 µg/mL; in assay [7] it was 0.25 µg/mL (≈ 0.304 µM); in assay [9], 0.25 µg/mL (≈ 0.304 µM). Also, the MIC in [14] is 8 µg/mL (≈ 9.72 µM); in [16] it was greater than 2 µg/mL; in [17] it was greater than 2 µg/mL; in assay [18], greater than 2 µg/mL. The “Drug sensitivity test result” value in [2] is recorded as “S”; in the assay on M. tuberculosis H37Rv, “S”; in [6], “R”; in [8], “R”; in [10], “S”; in assay [11], “R”. The “Drug sensitivity test result” value is recorded as “R” in [12], “S” in assay [13], “R” in [15] and “R” in [19].

As for `[H]/N=C(/N)N[C@H]1[C@H](O)[C@@H](O)[C@H](O[C@@H]2O[C@@H](C)[C@](O)(C=O)[C@H]2O[C@@H]2O[C@@H](CO)[C@H](O)[C@@H](O)[C@@H]2NC)[C@@H](N/C(N)=N\[H])[C@@H]1O` [SM, streptomycin], the MIC in [1] was 0.125 µg/mL (≈ 0.215 µM); in assay [3], 0.062 µg/mL (≈ 0.107 µM); in [4], 0.5 µg/mL (≈ 0.86 µM); in assay [5], 0.125 µg/mL (≈ 0.215 µM); in assay [7] it was 0.125 µg/mL (≈ 0.215 µM); in assay [9] it was 4 µg/mL (≈ 6.88 µM). The MIC in [14] is 4 µg/mL (≈ 6.88 µM); in assay [16], 0.5 µg/mL (≈ 0.86 µM); in assay [17], greater than 4 µg/mL; in [18] it was 0.25 µg/mL (≈ 0.43 µM). The “Drug sensitivity test result” value is reported as “R” in assay [2]; “S” with M. tuberculosis H37Rv; “S” in assay [6]; “S” in assay [8]; “S” in assay [10]; “R” in assay [11]. Further, the “Drug sensitivity test result” value in assay [12] is listed as “R”; in [13], “S”; in assay [15], “R”; in assay [19] it was “S”.
